Experimental data taken from PubChem BioAssay (NCI).
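Following 48 hours of exposure in 96-well plates, responses at five concentrations were used to interpolate endpoints linearly. GI50 is the concentration that inhibits growth by half. TGI: total growth inhibition.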

system: MDA-MB-231 breast; assay: DTP human tumour cell line panel, 48 h

SMILES | TGI [µM]
CC1=C(C(=O)Nc2ccccc2)C(c2ccc(C3C(C(=O)Nc4ccccc4)=C(C)NC(C)=C3C(=O)Nc3ccccc3)cc2)C(C(=O)Nc2ccccc2)=C(C)N1 | 13.4

system: SNB-78 CNS; assay: DTP human tumour cell line panel, 48 h

SMILES | TGI [µM] | GI50 [µM]
OCC(O)CNc1ccnc2cc(Cl)ccc12 (stereo unspecified) | > 100 | –
Cc1cccc(C)c1NC(=O)C(=O)CC(=O)c1cccc([N+](=O)[O-])c1 | > 100 | –
CC1=C(c2cc(C(=O)Nc3ccc(Cl)cc3)nc(=S)[nH]2)Sc2ccccc2N1 | > 100 | –
CC1=C(C(=O)NNS(=O)(=O)c2ccc(C)cc2)CC(C(=O)NNS(=O)(=O)c2ccc(C)cc2)=C(C)N1 | > 100 | –
[F][Sn]([F])([c]1ccccc1)[c]1ccccc1 | 16 | 3.18
N#CC(C(=O)CCC(=O)Nc1cccc(C(F)(F)F)c1)c1ccc(Cl)cc1 (stereo unspecified) | > 100 | –
Cc1cc(C(C)(C)C)cc(Cc2cc(C(C)(C)C)cc(Cc3cc(C(C)(C)C)cc(C)c3O)c2O)c1O | 17.9 | –
COC(=O)/C(=C\c1ccc(N(CCC#N)CCC#N)cc1)NC(=O)c1cc([N+](=O)[O-])ccc1Cl | > 100 | –
COC1=C(Br)C(=O)c2nc(C)ccc2C1=O | 41.6 | –
C/C(CCn1[nH]c(=O)ccc1=O)=N\OCCCc1ccccc1 | > 100 | –
COC(=O)c1cccc2cccc(C(=O)Nc3ccc(Cl)cc3)c12 | > 100 | –
N.N.NCCCCCCCCCN.O=C([O-])CC(=O)[O-].O=C([O-])CC(=O)[O-].[Pt+4].[Pt+4] | > 100 | > 100
CC(=O)OC1C2CCC1C1C2C2(Cl)C(Cl)=C(Cl)C1(Cl)C2(Cl)Cl (stereo unspecified) | 34.8 | –
CC(C(=O)n1c2ccccc2c2ccccc21)N(c1ccccc1)c1ccccc1 (stereo unspecified) | 32 | –
CCOC(=O)Cn1c(=O)n(C)c(=O)c2c1ncn2Cc1ccccc1 | > 100 | –
CC(C)(C)OC(=O)N1N=NC2C1C1CC(OCc3ccccc3)(OCc3ccccc3)C2O1 (stereo unspecified) | > 100 | –
O=C1C(=O)N(c2cc(Cl)ccc2Cl)C(=O)C(=O)C1c1nc2ccccc2o1 | > 100 | –
CCOC(=O)/C(=C/c1cccc(C#N)c1)N(CC)CC | > 100 | –
O=S1(=O)OCCOS(=O)(=O)C1Cl | > 100 | –
COc1cc(C2C(C(=O)Nc3cc(F)c(F)cc3F)=C(C)NC(C)=C2C(=O)Nc2cc(F)c(F)cc2F)ccc1O | > 100 | –
O=c1nc(-c2ccccc2)cc(-c2ccccc2O)[nH]1 | > 100 | –
Oc1ccc(Br)cc1C=Nc1ccc(N=Cc2cc(Br)ccc2O)cc1 | > 100 | –
CCOc1ccccc1NC(=O)C(=O)Cc1nc2ccccc2s1 | > 100 | –
C=CCn1c2c(sc1=S)C(S)N=CN2 (stereo unspecified) | > 100 | –
Cc1cccc(N=C2NC(=O)C(CC(=O)Nc3cccc(C)c3C)S2)c1 (stereo unspecified) | > 100 | –
O=C(O)CSc1n[nH]c(Cc2ccccc2)n1 | > 100 | –
CCOc1ccccc1NC(=O)C(C#N)C1=C(Cl)C(=O)c2ccccc2C1=O (stereo unspecified) | 4.42 | 2.03

system: M19-MEL melanoma; assay: DTP human tumour cell line panel, 48 h

SMILES | TGI [µM] | GI50 [µM]
OCC(O)CNc1ccnc2cc(Cl)ccc12 (stereo unspecified) | > 100 | –
Cc1cccc(C(C)C)c1NC(=O)C(=O)C(C(=O)c1ccccc1F)C1OC(=O)c2ccccc21 (stereo unspecified) | 26.4 | –
Cc1cccc(C)c1NC(=O)C(=O)CC(=O)c1cccc([N+](=O)[O-])c1 | > 100 | –
CC1=C(c2cc(C(=O)Nc3ccc(Cl)cc3)nc(=S)[nH]2)Sc2ccccc2N1 | > 100 | –
O=C(O)CN(c1ccccc1)S(=O)(=O)c1ccc([N+](=O)[O-])cc1 | > 100 | –
CC1=C(C(=O)NNS(=O)(=O)c2ccc(C)cc2)CC(C(=O)NNS(=O)(=O)c2ccc(C)cc2)=C(C)N1 | > 100 | –
[F][Sn]([F])([c]1ccccc1)[c]1ccccc1 | 6.2 | 2.35
N#CC(C(=O)CCC(=O)Nc1cccc(C(F)(F)F)c1)c1ccc(Cl)cc1 (stereo unspecified) | > 100 | –
Cc1cc(C(C)(C)C)cc(Cc2cc(C(C)(C)C)cc(Cc3cc(C(C)(C)C)cc(C)c3O)c2O)c1O | 11.1 | –
COC(=O)/C(=C\c1ccc(N(CCC#N)CCC#N)cc1)NC(=O)c1cc([N+](=O)[O-])ccc1Cl | > 100 | –
COC1=C(Br)C(=O)c2nc(C)ccc2C1=O | 27.8 | –
C/C(CCn1[nH]c(=O)ccc1=O)=N\OCCCc1ccccc1 | > 100 | –
COC(=O)c1cccc2cccc(C(=O)Nc3ccc(Cl)cc3)c12 | > 100 | –
CC(=O)OC1C2CCC1C1C2C2(Cl)C(Cl)=C(Cl)C1(Cl)C2(Cl)Cl (stereo unspecified) | 27.7 | –
CC(C(=O)n1c2ccccc2c2ccccc21)N(c1ccccc1)c1ccccc1 (stereo unspecified) | 32.5 | –
CCOC(=O)Cn1c(=O)n(C)c(=O)c2c1ncn2Cc1ccccc1 | > 100 | –
CCCCc1c2c(nc3c1CCC/C3=C\c1ccccc1)/C(=C/c1ccccc1)CCC2 | > 100 | –
CC(C)(C)OC(=O)N1N=NC2C1C1CC(OCc3ccccc3)(OCc3ccccc3)C2O1 (stereo unspecified) | > 100 | –
O=C1C(=O)N(c2cc(Cl)ccc2Cl)C(=O)C(=O)C1c1nc2ccccc2o1 | > 100 | –
CC1=C(C(=O)Nc2ccccc2)C(c2ccc(C3C(C(=O)Nc4ccccc4)=C(C)NC(C)=C3C(=O)Nc3ccccc3)cc2)C(C(=O)Nc2ccccc2)=C(C)N1 | 22 | –
O=c1c2ccccc2nc(-c2ccccc2)n1NC(=S)Nc1ccccc1 | > 100 | –
CCOC(=O)/C(=C/c1cccc(C#N)c1)N(CC)CC | > 100 | –
O=S1(=O)OCCOS(=O)(=O)C1Cl | > 100 | –
COc1cc(C2C(C(=O)Nc3cc(F)c(F)cc3F)=C(C)NC(C)=C2C(=O)Nc2cc(F)c(F)cc2F)ccc1O | 77.3 | –
O=c1nc(-c2ccccc2)cc(-c2ccccc2O)[nH]1 | > 100 | –
CCOc1ccccc1NC(=O)C(=O)Cc1nc2ccccc2s1 | > 100 | –
C=CCn1c2c(sc1=S)C(S)N=CN2 (stereo unspecified) | > 100 | –
Cc1cccc(N=C2NC(=O)C(CC(=O)Nc3cccc(C)c3C)S2)c1 (stereo unspecified) | > 100 | –
O=C(O)CSc1n[nH]c(Cc2ccccc2)n1 | > 100 | –
